We go through five compounds from patent US20170079979A1, “THERAPY FOR SOLID TUMORS” (Children's Hospital Medical Center, priority 2014, published 2017).

Structures can show the parent of a compound that is named as a salt.

One experiment deals with AU565 cells. The experiment can be described thus: AU565 breast cancer cell survival with NRG1 and lapatinib (FIG. 1). The conditions noted are these: for cell survival: concomitant inhibition of Dusp-1 by BCI and c-Fos by either curcumin or DFC (combination), FIG. 1 right panel. In kind it is cell-based. As for the experimental part:
AU565 cell line was established from the malignant pleural effusion of the mammary gland, which overexpresses the HER2. This class of tumors is treated by lapatinib. This treatment is not curative and relapse is common because cancer stem cells are not responsive to the treatment.

The next experiment has as its system HCC827 cells. The experiment can be described thus: HCC827 lung cancer cell survival with HGF and erlotinib (FIG. 2). In kind it is cell-based. The conditions noted are these: concomitant inhibition of Dusp-1 by BCI and c-Fos by either curcumin or DFC (combination), FIG. 2 right panel. The text has this:
HCC827 cell line was derived from the lung adenocarcinoma. This lung adenocarcinoma has an acquired mutation in the EGFR tyrosine kinase domain (E746-A750 deletion). […] Most patients develop resistance by acquiring gatekeeper mutation the kinase domain and single TKI treatment is not curative because cancer stem cells are refractory to the treatment. In addition overexpression of growth factor HGF leading to activation of MET is a more frequent way of bypassing the EGFR mediated survival in this tumor model. Besides, cancer stem cells in the presence of growth factor are not addicted to the oncogene.

The subject of a further experiment is H1703 cells. The experiment can be described thus: H1703 lung sarcoma cell survival with EGF and sunitinib (FIG. 3). The class given is cell-based. The conditions noted are these: concomitant inhibition of Dusp-1 by BCI and c-Fos by either curcumin or DFC (combination), FIG. 3 right panel. As for the experimental part:
H1703 cell line was derived from the lung sarcoma, which is driven by PDGFRA as this cell line has amplified the PDGFRA. This group of patients is treated with sunitinib.

The test system of a further experiment is RT4 cells. The experiment can be described thus: RT4 bladder cancer cell survival with EGF and PLX4032 (FIG. 4). Conditions: FIG. 4 right panel; for cell survival: concomitant inhibition of Dusp-1 by BCI and c-Fos by either curcumin or DFC (combination). The class given is cell-based. The protocol: To determine the effect of c-Fos and Dusp-1 inhibition with the tyrosine kinase inhibitor PLX4032, RT4 cells were assayed, as a model bladder cancer, shown in FIG. 4. This cell line was derived from bladder cancer patients, which has amplification of EGFR.

For the next experiment, the system named is BaF3-BCR-ABL cells. The conditions noted are these: Imatinib combined with BCI, cited from earlier work.
A further experiment relates to parental BaF3 cells. Conditions: cited from earlier work; for effect of the drug combination: Imatinib combined with BCI.
Experiment [1] concerns leukemia initiating cells (LIC). Conditions: cited from earlier work.

With `O=C1/C(=C/c2ccccc2)C(NC2CCCCC2)c2ccccc21` (centres unmarked) [BCI, (E)-2-benzylidene-3-(cyclohexylamino)-2,3-dihydro-1H-inden-1-one], the cell survival entry with AU565 cells, with HCC827 cells, with H1703 cells and with RT4 cells was “completely suppresses the cell survival” each time. Moreover, the “effect of the drug combination” value in the experiment with BaF3-BCR-ABL cells (BCR-ABL positive cells) and with parental BaF3 cells was “no effect” each time. Moreover, in the experiment on BaF3-BCR-ABL cells (BaF3-BCR-ABL cells with c-Fos knockdown), the “sensitivity in cell proliferation assay” value is reported as “fully sensitive”.

Take `COc1cc(/C=C/C(=O)C(=Cc2ccc(F)c(F)c2)C(=O)/C=C/c2ccc(O)c(OC)c2)ccc1O` [DFC, difluorinated curcumin]: the cell survival result in the experiment with AU565 cells, with H1703 cells and in the experiment with RT4 cells was “completely suppresses the cell survival” in each case.

Consider `Cc1ccc(NC(=O)c2ccc(CN3CCN(C)CC3)cc2)cc1Nc1nccc(-c2cccnc2)n1` [Imatinib, Imatinib mesylate], for which the “effect of the drug combination” value with parental BaF3 cells is “no effect”. For the same compound, the survival and apoptosis result in the experiment on parental BaF3 cells (inhibition of c-Fos and Dusp-1 together with Imatinib treatment) is recorded as “no effect”. In addition, the “survival of patients with leukemia” value in experiment [1] is listed as “improved the survival”. Besides, in experiment [1] (patients with leukemia), the “elimination of leukemia initiating cells (LIC)” value is recorded as “did not eliminate”.

As for `COc1cc(/C=C/C(=O)CC(=O)/C=C/c2ccc(O)c(OC)c2)ccc1O` [curcumin], the cell survival entry in the experiment on AU565 cells, in the experiment on HCC827 cells, in the experiment on H1703 cells and with RT4 cells was “completely suppresses the cell survival” each time. For the same compound, the “relative potency of the BCI combination (curcumin versus DFC)” value with RT4 cells (combination with BCI) was “more potent”.

On to `CS(=O)(=O)CCNCc1ccc(-c2ccc3ncnc(Nc4ccc(OCc5cccc(F)c5)c(Cl)c4)c3c2)o1` [lapatinib], for which, in the experiment on AU565 cells (addition of NRG1, lapatinib), the “TKI response on addition of growth factor” value is given as “confer resistance”.
